Results taken from patent US12485104B2, “Amino acid derivatives containing a disulfanyl group as an inhibitor of NEP and APN for the prevention and treatment of trigeminal nerve pain” (KOS THERAPEUTICS, INC., priority 2018, dated 2025).

Key:
[1] = tested on: rats, chronic migraine model induced by repeated injection of isosorbide dinitrate (ISDN); experiment: Prevention of migraine attacks by oral administration, chronic ISDN model, von Frey test; assay type: in vivo
Experimental: The effects of oral administration of compound 1 on mechanical cephalic allodynia were tested in rats in a chronic migraine model induced by repeated systemic injection of an NO donor, isosorbide dinitrate (ISDN). Indeed, the powerful vasodilating action of “NO donors” explains their particular propensity to trigger headache in healthy subjects and migraine attacks in migraine patients (Hansen & Olesen, Cephalalgia (2017), 37: 11-19).
The experiments were conducted on male rats (10 rats per group of the Sprague-Dawley CD strain (200-250 g, Charles River Laboratories), randomly assigned into each group before experimentation. A minimum delay of 7 days was respected before any experimentation. The experiments were conducted with the experimenter blinded.
(§1) The animals were first subjected to habituation sessions designed to reproduce the animals environmental conditions and handling by the experimenter during the final test.
The mechanical sensitivity of the periorbital region was measured by the von Frey test, which consists of applying a range of von Frey filaments in this region, calibrated to exert a constant force (expressed in grams) to determine the force (threshold) that leads to a head withdrawal reaction. The rats were habituated to these tests for 5 days preceding the experiment for one hour, so that repeated measurements give reproducible results. […] The rats then received successive intraperitoneal injections of ISDN (10 mg/kg) and cutaneous sensitivity was assessed by means of the von Frey test. […]
Cutaneous mechanical sensitivity was measured before and on the test day (FIG. 4, single administration of compound 1 or FIG. 6, repeated administration of compound 1) or before and on the test day (Days 1, 2, 3, 4 and 5) (FIG. 5, repeated administration of compound 1) before injection and at 30 min intervals for 4 h in the different groups of rats receiving intraperitoneal ISDN (10 mg/kg, volume of 10 mL/kg). […]

healthy volunteers = experiment: Adverse effects observed during phase 1b clinical study; conditions: N = 6
Experimental: The doses indicated in the following table were administered 4 times a day for 5 days, the daily dose varying from 800 to 4000 mg, the total quantity over five days being comprised between 4000 and 20,000 mg.

[2] = tested on: SJL mice, EAE model (hyperalgesia); experiment: Tail immersion test in multiple sclerosis model (experimental autoimmune encephalomyelitis, EAE); assay type: in vivo; conditions: for Nociceptive threshold (tail withdrawal latency time): 20 min after administration, 48° C. bath
From the text: The multiple sclerosis model can be induced in SJL mice, female albino white mice, by the administration of an emulsion made up of a myeline fragment and complete Freund® adjuvant (Aicher et al., Pain (2004), 110: 560-570). Central nervous system inflammation appears at the end of around ten days=experimental autoimmune encephalomyelitis, or EAE.
Female SJL mice, purchased from Charles River Laboratories, arrive at the age of 5 weeks and are immunized at the age of 6 weeks. Each mouse receives, under mask anesthesia (2% isoflurane), an emulsion of a volume of 200 μL in the left flank, containing 150 μg of PLP139-151 (Proteolipid Protein Myelin, fragment 139-151) in 100 μL of sterile 0.9% NaCl as well as 100 μL of incomplete Freund® adjuvant (Sigma) completed by inactivated Mycobacterium tuberculosis (Difco, USA) at 4 mg/mL=complete adjuvant.
The symptoms of the disease are reported between D10 and D15, which is reflected by an acute phase, during which scores are high and the animals present a loss of pain sensitivity. This phase precedes a chronic phase which starts around D18 and is characterized by stabilization of the animals general condition and the onset of a significant lowering in the pain perception threshold (hyperalgic state) (Aicher et al., Pain (2004), 110: 560-570).
Nociceptive thresholds were determined from D12 by the tail immersion test.
Compound 1 is administered IP (intraperitoneally) at 50 mg/kg and 100 mg/kg in a EtOH/Tween 80/Water carrier (10/10/80) (100 μL per 10 g of mice). The measurement of time of tail withdrawal from a 48° C. bath is done at 20 min after injection (cut-off=10 sec).

[3] = tested on: rats, migraine model induced by repeated injection of isosorbide dinitrate (ISDN); experiment: Persistent cephalic allodynia induced by recurrent ISDN (chronic migraine), von Frey test, IV treatment; assay type: in vivo; conditions: 20 mg/kg intravenously (FIG. 2)
Experimental: The effects of systemic administration of compound 1 on mechanical cephalic allodynia were tested in rats in a migraine model induced by repeated systemic injection of an NO donor, isosorbide dinitrate (ISDN). Indeed, the powerful vasodilating action of “NO donors” explains their particular propensity to trigger headache in healthy subjects and migraine attacks in migraine patients (Hansen & Olesen, Cephalalgia (2017), 37: 11-19).
The experiments were conducted on male Sprague-Dawley CD rats (200-250 g, Charles River Laboratories). A minimum delay of 7 days was respected before any experimentation. […]
(§2) The mechanical sensitivity of the periorbital region was measured by the von Frey test, which consists of applying a range of von Frey filaments in this region, calibrated to exert a constant force (expressed in grams) to determine the force (threshold) that leads to a head withdrawal reaction. […] The rats then received successive intraperitoneal injections of ISDN (10 mg/kg) and cutaneous sensitivity was assessed by means of the von Frey test. […] On the day of the experiment, the forces exerted by the von Frey filaments that led to head withdrawal were measured in each rat under controlled conditions every 30 minutes for 4 hours. […]

[4] = tested on: rats, migraine model induced by single injection of isosorbide dinitrate (ISDN); experiment: Mechanical cephalic allodynia induced by single ISDN (acute migraine), von Frey test, oral treatment; assay type: in vivo; conditions: 50 mg/kg orally (FIG. 3)
Experimental: The effects of systemic administration of compound 1 on mechanical cephalic allodynia were tested in rats in a migraine model induced by single systemic injection of an NO donor, isosorbide dinitrate (ISDN). Indeed, the powerful vasodilating action of “NO donors” explains their particular propensity to trigger headache in healthy subjects and migraine attacks in migraine patients (Hansen & Olesen, Cephalalgia (2017), 37: 11-19).
The experiments were conducted on male Sprague-Dawley CD rats (200-250 g, Charles River Laboratories). A minimum delay of 7 days was respected before any experimentation.
as §1
as §2, with “an” for “successive”, “injection” for “injections”

[5] = 200 mg 4 times a day for 5 days
[6] = 400 mg 4 times a day for 5 days
[7] = 600 mg 4 times a day for 5 days
[8] = 800 mg 4 times a day for 5 days
[9] = 1000 mg 4 times a day for 5 days

`CCOC(=O)OC(C)OC(=O)CNC(=O)[C@@H](CSSC[C@@H](N)CCSC)Cc1ccccc1.O=C(O)/C=C/C(=O)O` (stereo partly drawn) [Compound 1, (5S,10S)-10-benzyl-16-methyl-11,14,18-trioxo-15,17,19-trioxa-2,7,8-trithia-12-azahenicosan-5-aminium fumarate] was tested, and the “Effect on cutaneous cephalic sensitivity (von Frey)” value ([1]; 50 mg/kg orally once daily for 5 days, as a function of time after ISDN, versus carrier (FIG. 6)) was “significantly reduces cutaneous cephalic sensitivity”, the “Effect on cutaneous cephalic sensitivity (von Frey)” value ([1]; 50 mg/kg orally once on the experiment day (FIG. 4)) was “had no effect on cutaneous cephalic sensitivity” and the “Effect on cutaneous cephalic sensitivity (von Frey)” value ([1]; 50 mg/kg orally repeatedly over 5 days, before administration of ISDN, versus carrier (FIG. 5)) was “significantly reduces cutaneous cephalic sensitivity”. For the same molecule, the “Subjects with Death” value (healthy volunteers; [5]) was 0, the “Subjects with LAE (limiting adverse event)” value (healthy volunteers; [5]) was 0 and the “Subjects with SAE (serious adverse event)” value (“Subjects with SAE” below) (healthy volunteers; [5]) was 0. For the same molecule, the “Subjects with TEAEs, (%)” value (healthy volunteers; [5]) was 16.7%, the “TEAEs, E = number of adverse reactions” value (healthy volunteers; [5]) was 3 and the “Subjects with Death” value (healthy volunteers; [6]) was 0. For the same molecule, the “Subjects with LAE (limiting adverse event)” value (healthy volunteers; [6]) was 0, the “Subjects with SAE” value (healthy volunteers; [6]) was 0 and the “Subjects with TEAEs, (%)” value (healthy volunteers; [6]) was 83.3%. For the same molecule, the “TEAEs, E = number of adverse reactions” value (healthy volunteers; [6]) was 12, the “Subjects with Death” value (healthy volunteers; [7]) was 0 and the “Subjects with LAE (limiting adverse event)” value (healthy volunteers; [7]) was 0. For the same molecule, the “Subjects with SAE” value (healthy volunteers; [7]) was 0, the “Subjects with TEAEs, (%)” value (healthy volunteers; [7]) was 66.7% and the “TEAEs, E = number of adverse reactions” value (healthy volunteers; [7]) was 7. The “Subjects with Death” value (healthy volunteers; [8]) was 0, the “Subjects with LAE (limiting adverse event)” value (healthy volunteers; [8]) was 0 and the “Subjects with SAE” value (healthy volunteers; [8]) was 0. The “Subjects with TEAEs, (%)” value (healthy volunteers; [8]) was 100.0%, the “TEAEs, E = number of adverse reactions” value (healthy volunteers; [8]) was 10 and the “Subjects with Death” value (healthy volunteers; [9]) was 0. The “Subjects with LAE (limiting adverse event)” value (healthy volunteers; [9]) was 0, the “Subjects with SAE” value (healthy volunteers; [9]) was 0 and the “Subjects with TEAEs, (%)” value (healthy volunteers; [9]) was 66.7%. For the same molecule, the “TEAEs, E = number of adverse reactions” value (healthy volunteers; [9]) was 15, the “Nociceptive threshold (tail withdrawal latency time)” value (shortened to “Nociceptive threshold”) ([2]; 50 mg/kg IP, D21) was 5.12 (4) seconds and the “Nociceptive threshold” value ([2]; 50 mg/kg IP, D28) was 4.14 (5) seconds. For the same molecule, the “Nociceptive threshold” value ([2]; 100 mg/kg IP, D28) was 5.98 (5) seconds, the “Nociceptive threshold” value ([2]; 100 mg/kg IP, D35) was 5.46 (5) seconds and the Effect on hyperalgesia ([2]; 50 and 100 mg/kg IP (FIG. 1)) was “permits reducing hyperalgesia”. For the same molecule, the “Effect on cephalic cutaneous sensitivity (von Frey)” value [3] was “considerably reduces cephalic cutaneous sensitivity” and the “Effect on cephalic cutaneous sensitivity (von Frey)” value [4] was “considerably reduces cephalic cutaneous sensitivity”.
